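96-well plates; 48 h exposure; 5 concentrations. Endpoints by linear interpolation between flanking doses. Not reached: highest tested concentration assigned. GI50 = concentration required for 50% inhibition of growth.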 Calls of active or inactive are those of the source. Rule as the data show it: active = GI50 up to about 1.1 µM and inactive = higher.
Assays:
Assay in all cases: NCI-60 cell line screen, 48 h
[1] = tested on: 786-0
[2] = tested on: A498
[3] = tested on: A549
[4] = tested on: ACHN
[5] = tested on: BT-549
[6] = tested on: CAKI-1
[7] = tested on: CCRF-CEM
[8] = tested on: COLO 205
[9] = tested on: DU-145
[10] = tested on: EKVX
[11] = tested on: HCC 2998
[12] = tested on: HCT-116
[13] = tested on: HCT-15
[14] = tested on: HL-60
[15] = tested on: HOP-62
[16] = tested on: HOP-92
[17] = tested on: HT-29
[18] = tested on: Hs-578T
[19] = tested on: IGROV-1
[20] = tested on: K562
[21] = tested on: KM12
[22] = tested on: LOX IMVI
[23] = tested on: M14
[24] = tested on: MCF7
[25] = tested on: MDA-MB-231
[26] = tested on: MDA-MB-435
[27] = tested on: MDA-N
[28] = tested on: MOLT-4
[29] = tested on: Malme-3M
[30] = tested on: NCI-H226
[31] = tested on: NCI-H23
[32] = tested on: NCI-H460
[33] = tested on: NCI-H522
[34] = tested on: NCI/ADR-RES
[35] = tested on: OVCAR-3
[36] = tested on: OVCAR-4
[37] = tested on: OVCAR-5
[38] = tested on: OVCAR-8
[39] = tested on: PC-3
[40] = tested on: RPMI-8226
[41] = tested on: RXF 393
[42] = tested on: SF-268
[43] = tested on: SF-295
[44] = tested on: SF-539
[45] = tested on: SK-MEL-28
[46] = tested on: SK-MEL-2
[47] = tested on: SK-MEL-5
[48] = tested on: SK-OV-3
[49] = tested on: SN12C
[50] = tested on: SNB-19
[51] = tested on: SW-620
[52] = tested on: T47D
[53] = tested on: TK-10
[54] = tested on: U-251
[55] = tested on: UACC-257
[56] = tested on: UACC-62
[57] = tested on: UO-31

Measured: GI50

c1ccc(CSCCc2ccncc2)cc1
active: [6] < 0.01 µM
> 100 µM: [13]
inactive: [1] > 100 µM | [2] > 100 µM | [3] > 100 µM | [4] > 100 µM | [5] > 100 µM | [7] > 100 µM | [8] > 100 µM | [9] > 100 µM | [10] 67.9 µM | [11] > 100 µM | [12] > 100 µM | [14] 50.8 µM | [15] > 100 µM | [16] 15.2 µM | [17] > 100 µM | [18] > 100 µM | [19] > 100 µM | [20] > 100 µM | [21] > 100 µM | [22] > 100 µM | [23] > 100 µM | [24] > 100 µM | [25] 15.8 µM | [26] > 100 µM | [27] > 100 µM | [28] > 100 µM | [29] > 100 µM | [30] > 100 µM | [31] > 100 µM | [32] > 100 µM | [33] 69 µM | [34] > 100 µM | [35] > 100 µM | [36] 44 µM | [37] > 100 µM | [38] > 100 µM | [39] > 100 µM | [40] 49.9 µM | [41] > 100 µM | [42] > 100 µM | [43] > 100 µM | [44] > 100 µM | [45] > 100 µM | [46] 41.5 µM | [47] > 100 µM | [48] > 100 µM | [49] > 100 µM | [50] > 100 µM | [51] > 100 µM | [52] 90.6 µM | [53] > 100 µM | [54] > 100 µM | [55] 53 µM | [56] > 100 µM | [57] > 100 µM
